According to patent US12077503B2, “Substituted cyclic amides and their use as herbicides” (FMC CORPORATION, priority 2015, dated 2024):

Assays:
Format in all cases: in vivo
[1] = tested on: ragweed (common ragweed, Ambrosia elatior); experiment: Test A preemergence; conditions: Ambrosia artemisiifolia, pre-emergence, 240 h, 0 to 100 scale where 0 is no effect and 100 is complete control, read-out: Ragweed plant response rating
Procedure, shortened: (§1)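 Preemergence soil spray on seeded pots or post-emergence spray on 1–2 leaf plants, in loam–sand blend. Greenhouse ~10 d. Visual rating 0–100 against untreated plants.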

[2] = tested on: giant foxtail (Setaria faberii); experiment: Test A preemergence; conditions: Setaria faberi, pre-emergence, 240 h, 0 to 100 scale where 0 is no effect and 100 is complete control, read-out: Foxtail, Giant plant response rating
Procedure, shortened: as §1

[3] = tested on: pigweed (Amaranthus retroflexus); experiment: Test A preemergence; conditions: Amaranthus retroflexus, pre-emergence, 240 h, 0 to 100 scale where 0 is no effect and 100 is complete control, read-out: Pigweed plant response rating
[4] = tested on: barnyardgrass (Echinochloa crus-galli); experiment: Test A preemergence; conditions: Echinochloa crus-galli, pre-emergence, 240 h, 0 to 100 scale where 0 is no effect and 100 is complete control, read-out: Barnyardgrass plant response rating
Procedure, shortened: as §1

[5] = tested on: ryegrass, Italian (Italian ryegrass, Lolium multiflorum); experiment: Test A preemergence; conditions: Lolium multiflorum, pre-emergence, 240 h, 0 to 100 scale where 0 is no effect and 100 is complete control, read-out: Ryegrass, Italian plant response rating
Procedure, shortened: as §1

Kochia (Kochia scoparia) [6] = experiment: Test A preemergence; conditions: Bassia scoparia, pre-emergence, 240 h, 0 to 100 scale where 0 is no effect and 100 is complete control, read-out: Kochia plant response rating
Procedure, shortened: as §1

[7] = tested on: ragweed (common ragweed, Ambrosia elatior); experiment: Test A postemergence; conditions: Ambrosia artemisiifolia, post-emergence, 240 h
Procedure, shortened: as §1

corn (Zea mays) = experiment: Test A postemergence; conditions: Zea mays, post-emergence, 240 h
Procedure, shortened: as §1

[8] = tested on: giant foxtail (Setaria faberii); experiment: Test A postemergence; conditions: Setaria faberi, post-emergence, 240 h
Procedure, shortened: as §1

[9] = tested on: pigweed (Amaranthus retroflexus); experiment: Test A postemergence; conditions: Amaranthus retroflexus, post-emergence, 240 h
Procedure, shortened: as §1

[10] = tested on: barnyardgrass (Echinochloa crus-galli); experiment: Test A postemergence; conditions: Echinochloa crus-galli, post-emergence, 240 h
Procedure, shortened: as §1

[11] = tested on: Galium (catchweed bedstraw, Galium aparine); experiment: Test A postemergence; conditions: Galium, post-emergence, 240 h
Procedure, shortened: as §1

[12] = tested on: blackgrass (Alopecurus myosuroides); experiment: Test A postemergence; conditions: Alopecurus myosuroides, post-emergence, 240 h
Procedure, shortened: as §1

[13] = tested on: ryegrass, Italian (Italian ryegrass, Lolium multiflorum); experiment: Test A postemergence; conditions: Lolium multiflorum, post-emergence, 240 h
Procedure, shortened: as §1

Kochia (Kochia scoparia) [14] = experiment: Test A postemergence; conditions: Bassia scoparia, post-emergence, 240 h
Procedure, shortened: as §1

[15] = tested on: wheat (Triticum aestivum); experiment: Test A postemergence; conditions: Triticum aestivum, post-emergence, 240 h
Procedure, shortened: as §1

[16] = tested on: ducksalad (Heteranthera limosa); experiment: Test B flooded paddy test; conditions: Heteranthera limosa, 250 g ai/ha, Flood; 0 to 100 scale where 0 is no effect and 100 is complete control; read-out: Ducksalad plant response rating
Procedure, shortened: (§2)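 Percent control, visually estimated after 13–15 d in the greenhouse on a 0–100 basis, compares treated pots with untreated ones; compound was put into paddy water 3 cm above the soil when plants had two leaves.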

[17] = tested on: barnyardgrass (Echinochloa crus-galli); experiment: Test B flooded paddy test; conditions: Echinochloa crus-galli, 250 g ai/ha, Flood; 0 to 100 scale where 0 is no effect and 100 is complete control; read-out: Barnyardgrass plant response rating
Procedure, shortened: as §2

rice (Oryra sativa) = experiment: Test B flooded paddy test; conditions: Oryza sativa, 250 g ai/ha, Flood; 0 to 100 scale where 0 is no effect and 100 is complete control; read-out: Rice plant response rating
Procedure, shortened: as §2

[18] = tested on: sedge, umbrella (small-flower umbrella sedge, Cyperus difformis); experiment: Test B flooded paddy test; conditions: Cyperus difformis, 250 g ai/ha, Flood; 0 to 100 scale where 0 is no effect and 100 is complete control; read-out: Sedge, Umbrella plant response rating
Procedure, shortened: as §2

[19] = 125 g ai/ha, preemergence, approx. 10 d

CN1CC(c2cccc(C(F)(F)F)c2)C(C(=O)Nc2ccccc2C(C)(C)O)C1=O (stereo not drawn) [Compound 1146]
pest or weed control at 31 g/ha ([1]; 31 g ai/ha, Preemergence): 0% | pest or weed control at 125 g/ha [1, 19]: 0% | pest or weed control at 31 g/ha ([2]; 31 g ai/ha, Preemergence): 20% | pest or weed control at 125 g/ha [2, 19]: 80% | pest or weed control at 31 g/ha ([3]; 31 g ai/ha, Preemergence): 0% | pest or weed control at 125 g/ha [3, 19]: 0% | pest or weed control at 31 g/ha ([4]; 31 g ai/ha, Preemergence): 50% | pest or weed control at 125 g/ha [4, 19]: 70% | pest or weed control at 31 g/ha ([5]; 31 g ai/ha, Preemergence): 0% | pest or weed control at 125 g/ha [5, 19]: 30% | pest or weed control at 31 g/ha (Kochia (Kochia scoparia) [6]; 31 g ai/ha, Preemergence): 0% | pest or weed control at 125 g/ha (Kochia (Kochia scoparia) [6]; [19]): 0% | pest or weed control at 125 g/ha ([7]; 125 g ai/ha, postemergence, visual injury vs untreated controls after approx. 10 d, 0 = no effect, 100 = complete control, read-out: Ragweed plant response rating (0 to 100 scale)): 0% | pest or weed control at 31 g/ha ([7]; Postemergence, 31 g ai/ha, visual injury after approx. 10 d, 0 to 100 scale, 0 no effect, 100 complete control, read-out: Plant response rating, Ragweed): 0% | plant injury at 125 g/ha (corn (Zea mays); 125 g ai/ha, postemergence, visual injury on 0 to 100 scale (0 no effect, 100 complete control), approx. 10 d, read-out: Corn plant response rating): 30% | Corn plant response rating (crop injury, 0 = no effect, 100 = complete kill) at 31 g/ha (corn (Zea mays); Postemergence, 31 g ai/ha, visual injury after approx. 10 d, 0 to 100 scale, 0 no effect, 100 complete control): 0% | pest or weed control at 125 g/ha ([8]; 125 g ai/ha, postemergence, visual injury on 0 to 100 scale (0 no effect, 100 complete control), approx. 10 d, read-out: Foxtail, Giant plant response rating): 20% | pest or weed control at 31 g/ha ([8]; Postemergence, 31 g ai/ha, visual injury after approx. 10 d, 0 to 100 scale, 0 no effect, 100 complete control, read-out: Plant response rating, Foxtail, Giant): 0% | pest or weed control at 125 g/ha ([9]; 125 g ai/ha, postemergence, visual injury vs untreated controls after approx. 10 d, 0 = no effect, 100 = complete control, read-out: Pigweed plant response rating (0 to 100 scale)): 0% | pest or weed control at 31 g/ha ([9]; Postemergence, 31 g ai/ha, visual injury after approx. 10 d, 0 to 100 scale, 0 no effect, 100 complete control, read-out: Plant response rating, Pigweed): 0% | pest or weed control at 125 g/ha ([10]; 125 g ai/ha, postemergence, visual injury on 0 to 100 scale (0 no effect, 100 complete control), approx. 10 d, read-out: Barnyardgrass plant response rating): 40% | pest or weed control at 31 g/ha ([10]; Postemergence, 31 g ai/ha, visual injury after approx. 10 d, 0 to 100 scale, 0 no effect, 100 complete control, read-out: Plant response rating, Barnyardgrass): 0% | pest or weed control at 125 g/ha ([11]; 125 g ai/ha, postemergence, visual injury on 0 to 100 scale (0 no effect, 100 complete control), approx. 10 d, read-out: Galium plant response rating): 0% | pest or weed control at 31 g/ha ([11]; Postemergence, 31 g ai/ha, visual injury after approx. 10 d, 0 to 100 scale, 0 no effect, 100 complete control, read-out: Plant response rating, Galium): 0% | pest or weed control at 125 g/ha ([12]; 125 g ai/ha, postemergence, visual injury on 0 to 100 scale (0 no effect, 100 complete control), approx. 10 d, read-out: Blackgrass plant response rating): 0% | pest or weed control at 31 g/ha ([12]; Postemergence, 31 g ai/ha, visual injury after approx. 10 d, 0 to 100 scale, 0 no effect, 100 complete control, read-out: Plant response rating, Blackgrass): 0% | pest or weed control at 125 g/ha ([13]; 125 g ai/ha, postemergence, visual injury vs untreated controls after approx. 10 d, 0 = no effect, 100 = complete control, read-out: Ryegrass, Italian plant response rating (0 to 100 scale)): 0% | pest or weed control at 31 g/ha ([13]; Postemergence, 31 g ai/ha, visual injury after approx. 10 d, 0 to 100 scale, 0 no effect, 100 complete control, read-out: Plant response rating, Ryegrass, Italian): 0% | pest or weed control at 125 g/ha (Kochia (Kochia scoparia) [14]; 125 g ai/ha, postemergence, visual injury on 0 to 100 scale (0 no effect, 100 complete control), approx. 10 d, read-out: Kochia plant response rating): 0% | pest or weed control at 31 g/ha (Kochia (Kochia scoparia) [14]; Postemergence, 31 g ai/ha, visual injury after approx. 10 d, 0 to 100 scale, 0 no effect, 100 complete control, read-out: Plant response rating, Kochia): 0% | plant injury at 125 g/ha ([15]; 125 g ai/ha, postemergence, visual injury vs untreated controls after approx. 10 d, 0 = no effect, 100 = complete control, read-out: Wheat plant response rating (0 to 100 scale)): 0% | plant injury at 31 g/ha ([15]; Postemergence, 31 g ai/ha, visual injury after approx. 10 d, 0 to 100 scale, 0 no effect, 100 complete control, read-out: Plant response rating, Wheat): 0% | pest or weed control at 250 g/ha [16]: 0% | pest or weed control at 250 g/ha [17]: 45% | pest or weed control at 250 g/ha (rice (Oryra sativa)): 0% | pest or weed control at 250 g/ha [18]: 50%
